Test results from ChEMBL document CHEMBL1126397, “Synthesis of acid stable 5-o-fluoromethyl phosphonates of nucleosides. Evaluation as inhibitors of reverse transcriptase” (Bioorg Med Chem Lett, 1992).
pIC50: −log10 of the molar value.

Target: T1, Avian myoblastosis virus polyprotein II (Avian myeloblastosis virus, UniProt Q86831)
T1 sequence (Q86831 whole entry): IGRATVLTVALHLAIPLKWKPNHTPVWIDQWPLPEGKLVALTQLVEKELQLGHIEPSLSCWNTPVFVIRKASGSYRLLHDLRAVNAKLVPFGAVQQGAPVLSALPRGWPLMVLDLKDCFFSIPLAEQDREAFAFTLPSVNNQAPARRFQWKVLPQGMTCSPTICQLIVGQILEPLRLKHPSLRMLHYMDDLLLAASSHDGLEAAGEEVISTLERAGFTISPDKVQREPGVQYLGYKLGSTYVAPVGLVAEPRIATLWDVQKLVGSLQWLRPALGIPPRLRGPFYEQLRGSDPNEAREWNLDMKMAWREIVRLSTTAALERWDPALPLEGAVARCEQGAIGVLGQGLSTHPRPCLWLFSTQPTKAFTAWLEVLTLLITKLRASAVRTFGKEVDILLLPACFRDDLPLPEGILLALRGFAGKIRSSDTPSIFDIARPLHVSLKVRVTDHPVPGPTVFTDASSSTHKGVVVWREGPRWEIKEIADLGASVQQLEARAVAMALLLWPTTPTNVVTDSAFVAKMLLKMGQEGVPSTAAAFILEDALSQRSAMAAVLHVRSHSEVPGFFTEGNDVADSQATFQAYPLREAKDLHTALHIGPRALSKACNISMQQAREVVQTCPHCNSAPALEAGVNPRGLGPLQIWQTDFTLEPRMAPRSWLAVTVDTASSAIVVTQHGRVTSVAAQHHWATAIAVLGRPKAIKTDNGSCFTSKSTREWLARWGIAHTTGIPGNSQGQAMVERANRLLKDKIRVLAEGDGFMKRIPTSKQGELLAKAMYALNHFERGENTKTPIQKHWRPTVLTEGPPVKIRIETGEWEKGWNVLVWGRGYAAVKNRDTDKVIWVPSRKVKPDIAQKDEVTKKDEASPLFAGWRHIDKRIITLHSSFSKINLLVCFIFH
Test: Inhibitor of avian myeloblastosis virus AMV reverse transcriptase

Compound	pIC50
Cc1cn(C2C=CC(COP(=O)(O)C(F)F)O2)c(=O)[nH]c1=O (stereo not given)	3.05
Cc1cn(C2C=CC(COP(=O)(O)C(F)(F)F)O2)c(=O)[nH]c1=O (stereo not given)	3.07
Cc1cn(C2CC(N=[N+]=[N-])C(COP(=O)(O)C(F)F)O2)c(=O)[nH]c1=O (stereo not given)	3.93
Cc1cn(C2CC(N=[N+]=[N-])C(COP(=O)(O)C(F)(F)F)O2)c(=O)[nH]c1=O (stereo not given)	4.43
O=c1[nH]c(=O)n([C@H]2C[C@H](O)[C@@H](COP(=O)(O)C(F)F)O2)cc1F	3.43
O=c1[nH]c(=O)n([C@H]2C[C@H](O)[C@@H](COP(=O)(O)C(F)(F)F)O2)cc1F	4.09
Cc1cn(C2C=CC(COP(=O)(O)CF)O2)c(=O)[nH]c1=O (stereo not given)	3.55
Cc1cn(C2CC(N=[N+]=[N-])C(COP(=O)(O)CF)O2)c(=O)[nH]c1=O (stereo not given)	3.90
Nc1nc(O)c2ncn(C3O[C@H](COP(=O)(O)C(F)(F)F)[C@@H](O)[C@H]3O)c2n1 (stereo not given in full)	3.84
Nc1ccn(C2O[C@H](COP(=O)(O)C(F)F)[C@@H](O)[C@H]2O)c(=O)n1 (stereo not given in full)	3.77
